According to patent publication US7674813B2, “Heterocyclic sulfonamide inhibitors of beta amyloid production containing an azole” (Wyeth, priority 2004, dated 2010):

Assays:
[1] = system: beta amyloid 40; test: Aβ40/42 ELISA Assay (Aβ40); assay type: cell-based; conditions: Cricetulus griseus; CHO cells carrying the APP-REP-NL plasmid, 22 hours, sandwich ELISA
Procedure: (§1) Compounds are diluted from DMSO stocks to 2 μM and below in a cell culture medium. Compounds are then applied to CHO cells carrying the APP-REP-NL plasmid [Sudhir et. al, J. Biolog. Chem. 267:25602-25608 (1992)] for a period of 22 hours. After the conditioning period, medium is collected, diluted in assay buffer containing protein, and samples, controls, and synthetic peptide standards are incubated on a prepared ELISA plate. Using a sandwich ELISA with antibodies specifically directed against the carboxyl terminus of beta amyloid 40 or 42 (analogous to the method reported by Haugabook et al., J. Neurosci. Methods 108:171-179 (2001) but using goat anti-mouse IgG1 (source: Southern Biotech) as the anchor, 6E10 as the capture antibody (Source: SENETEK), rabbit antiAβ40 and antiAβ42 (source: QCB) and APL-donkey anti-rabbit IgG (H+L, source: Southern Biotech) as the detection antibody), the effect of the compound treatment on the cellular production of extracellular beta amyloid is quantified. Cells treated with compound are subsequently incubated in cell culture medium containing MTS-formazan. After a short incubation period, MTS/medium containing plates are read in a spectrophotometer to determine the extent to which compound toxicity affected the cell's metabolism and ability to synthesize beta amyloid.
(§2) A. Test Samples: compound samples are supplied as 20 mM stock solutions in a 100% DMSO solution.
(§3) B. APP-REP-NL cells: Qualified cell lines are carried from week to week using 1:100 dilutions and are cultured in DMEM supplemented with 1× antibiotic/antimycotic, 200 ug/ml of G418 antibiotic, and 10% certified fetal calf serum. Cells are also banked in liquid nitrogen. Periodically, beta amyloid production is assessed, and cells are either kept in culture or replaced with progenitors at full expression.
(§4) C. Antibodies: From certified lots that have already been qualified in this assay. Antibodies are stored in small frozen aliquots at −80° C. that are thawed and used.
(§5) A compound is considered active if it has an EC50 for Aβ40 reduction of <100 μM and no toxicity at doses in the vicinity of the EC50.

[2] = system: beta amyloid 42; test: Aβ40/42 ELISA Assay (Aβ42); assay type: cell-based; conditions: CHO cells carrying the APP-REP-NL plasmid, 22 hours, sandwich ELISA
Procedure: as §1, §2, §3, §4, §5

Row | melting point | EC50 [1] | SMILES | Effect on Aβ42 production [2]
1 | 125.8 to 127.6 °C | 70.1 µM | CCC(CC)C(c1ccnn1-c1ccccc1)N(C)S(=O)(=O)c1ccc(Cl)s1 (stereo not drawn) [Example 46, 5-Chloro-N-[2-ethyl-1-(1-phenyl-1H-pyrazol-5-yl)butyl]-N-methylthiophene-2-sulfonamide] | increase
2 | 102.1 to 104.1 °C | 61.2 µM | CCC(CC)C(c1ccnn1-c1ccccc1)N(C)S(=O)(=O)c1ccc(Cl)c(Cl)c1 (stereo not drawn) [Example 47, 3,4-Dichloro-N-[2-ethyl-1-(1-phenyl-1H-pyrazol-5-yl)butyl]-N-methylbenzenesulfonamide] | increase
3 | 115.6 to 118 °C | 65.1 µM | CCC(CC)C(c1ccnn1-c1ccccc1)N(C)S(=O)(=O)c1ccc(Br)s1 (stereo not drawn) [Example 48, 5-Bromo-N-[2-ethyl-1-(1-phenyl-1H-pyrazol-5-yl)butyl]-N-methylthiophene-2-sulfonamide] | increase
